Test system: SEM cells
Experiment: cell viability relative to DMSO control; higher = less cytotoxic
Settings: 48 h
How it was run: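 Viability is expressed as a percentage of DMSO wells within each plate, and cell-free wells serve as background. Seeding densities in the 1536-well plates (5 μl) were 500 cells/well for NOMO1 or SEM leukemia cells and 1000 cells/well for P12-Ichikawa. Each line was adapted for at least four passages in each medium. Library compounds in DMSO were pin-dosed at 47 μM to 0.79 nM (11 points, threefold), and CellTiter-Glo One luminescence was read after 48 h at 37°C.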

[1] = HPLM + 10% dialyzed FBS, 0.000781 µM
[2] = HPLM + 10% dialyzed FBS, 0.00234 µM
[3] = HPLM + 10% dialyzed FBS, 0.00702 µM
[4] = HPLM + 10% dialyzed FBS, 0.0211 µM
[5] = HPLM + 10% dialyzed FBS, 0.0632 µM
[6] = HPLM + 10% dialyzed FBS, 0.19 µM
[7] = HPLM + 10% dialyzed FBS, 0.569 µM
[8] = HPLM + 10% dialyzed FBS, 1.71 µM
[9] = HPLM + 10% dialyzed FBS, 5.12 µM
[10] = HPLM + 10% dialyzed FBS, 15.4 µM
[11] = HPLM + 10% dialyzed FBS, 46.1 µM
[12] = RPMI 5 mM glucose + 10% dialyzed FBS, 0.000781 µM
[13] = RPMI 5 mM glucose + 10% dialyzed FBS, 0.00234 µM
[14] = RPMI 5 mM glucose + 10% dialyzed FBS, 0.00702 µM
[15] = RPMI 5 mM glucose + 10% dialyzed FBS, 0.0211 µM
[16] = RPMI 5 mM glucose + 10% dialyzed FBS, 0.0632 µM
[17] = RPMI 5 mM glucose + 10% dialyzed FBS, 0.19 µM
[18] = RPMI 5 mM glucose + 10% dialyzed FBS, 0.569 µM
[19] = RPMI 5 mM glucose + 10% dialyzed FBS, 1.71 µM
[20] = RPMI 5 mM glucose + 10% dialyzed FBS, 5.12 µM
[21] = RPMI 5 mM glucose + 10% dialyzed FBS, 15.4 µM
[22] = RPMI 5 mM glucose + 10% dialyzed FBS, 46.1 µM
[23] = RPMI 5 mM glucose + 10% FBS, 0.000781 µM
[24] = RPMI 5 mM glucose + 10% FBS, 0.00234 µM
[25] = RPMI 5 mM glucose + 10% FBS, 0.00702 µM
[26] = RPMI 5 mM glucose + 10% FBS, 0.0211 µM
[27] = RPMI 5 mM glucose + 10% FBS, 0.0632 µM
[28] = RPMI 5 mM glucose + 10% FBS, 0.19 µM
[29] = RPMI 5 mM glucose + 10% FBS, 0.569 µM
[30] = RPMI 5 mM glucose + 10% FBS, 1.71 µM
[31] = RPMI 5 mM glucose + 10% FBS, 5.12 µM
[32] = RPMI 5 mM glucose + 10% FBS, 15.4 µM
[33] = RPMI 5 mM glucose + 10% FBS, 46.1 µM

| SMILES | cell viability [1] | cell viability [2] | cell viability [3] | cell viability [4] | cell viability [5] | cell viability [6] | cell viability [7] | cell viability [8] | cell viability [9] | cell viability [10] | cell viability [11] | cell viability [12] | cell viability [13] | cell viability [14] | cell viability [15] | cell viability [16] | cell viability [17] | cell viability [18] | cell viability [19] | cell viability [20] | cell viability [21] | cell viability [22] | cell viability [23] | cell viability [24] | cell viability [25] | cell viability [26] | cell viability [27] | cell viability [28] | cell viability [29] | cell viability [30] | cell viability [31] | cell viability [32] | cell viability [33] |
| --- | --- | --- | --- | --- | --- | --- | --- | --- | --- | --- | --- | --- | --- | --- | --- | --- | --- | --- | --- | --- | --- | --- | --- | --- | --- | --- | --- | --- | --- | --- | --- | --- | --- |
| Cc1cccc(Nc2nc(-c3ccncc3)cs2)c1 | 86.5% | 115% | 88.8% | 98.3% | 99.5% | 126% | 104% | 117% | 118% | 112% | 59.5% | 92.4% | 141% | 84% | 116% | 109% | 125% | 134% | 130% | 123% | 96.3% | 46.2% | – | – | – | – | – | – | – | – | – | – | – |
| CC(C)CC(=O)N[C@H](C(=O)N[C@H](C(=O)N[C@@H](CC(C)C)[C@@H](O)CC(=O)N[C@@H](C)C(=O)N[C@@H](CC(C)C)[C@@H](O)CC(=O)O)C(C)C)C(C)C | 94.4% | 89.1% | 109% | 103% | 74.7% | 95.9% | 101% | 108% | 97.7% | 96.6% | 14.5% | 93.5% | 116% | 92.2% | 93.4% | 73.1% | 110% | 95.5% | 99.1% | 94.9% | 91.6% | 10.9% | 82.7% | 96.7% | 115% | 94.7% | 68.1% | 104% | 106% | 99% | 98.7% | 89.6% | 10.4% |
| C[C@@H]\1CC(=O)N\N=C1C2=CC=C(NN=C(C#N)C#N)C=C2 | 88.9% | 86.8% | 101% | 87.4% | 98.4% | 96.5% | 55.4% | 92.3% | 106% | 62.8% | 4.93% | 73.5% | 88.4% | 91.4% | 93.1% | 95.2% | 92.5% | 72.8% | 100% | 107% | 53.2% | 6.27% | 68.2% | 92.4% | 107% | 92.6% | 88.4% | 102% | 39.3% | 90.9% | 95.2% | 35.3% | 5% |
| CNC(=O)c1ccc(N2C(=S)N(c3ccc(C#N)c(C(F)(F)F)c3)C(=O)C23CCC3)cc1F | 87.3% | 98.8% | 95.9% | 19.5% | 92.3% | 97% | 97.8% | 95.2% | 101% | 96.9% | 97.3% | 84.3% | 83% | 104% | 15.8% | 102% | 101% | 96.3% | 96.9% | 98% | 96.3% | 111% | 84.7% | 83.4% | 104% | 14.2% | 83% | 98.3% | 99.3% | 91.7% | 86.7% | 98.3% | 96.3% |
| C[N]1C=C(C2=C1C=CC=C2)\C3=C(\C(=O)NC3=O)C4=C5CC(CN)CC[N]5C6=C4C=CC=C6 (stereo not drawn) | 88.4% | 97.6% | 92.2% | 107% | 75.4% | 102% | 108% | 99.5% | 86.3% | 19.3% | 3.63% | 89.9% | 108% | 105% | 107% | 86.1% | 95.8% | 111% | 107% | 88.4% | 38.6% | 7.7% | 100% | 108% | 98.1% | 107% | 66.6% | 111% | 95% | 86% | 79.1% | 31.8% | 3.05% |
| Cc1cc(C(C)(C)C)c(O)c(C)c1CC1=NCCN1 | 62.6% | 80.2% | 75.4% | 83% | 76.8% | 83.3% | 86.9% | 91.9% | 66.6% | 60.3% | 62.5% | 90.3% | 77.7% | 82.2% | 89.3% | 93.3% | 95.4% | 87.5% | 105% | 77.2% | 57.9% | 55.9% | 83.8% | 82.1% | 91.1% | 83.6% | 86.7% | 100% | 102% | 101% | 53.1% | 51.8% | 59.3% |
| CCN1\C=C(\C(O)=O)C(=O)C2=CC=C(C)N=C12 | 72.7% | 70.2% | 82.7% | 87.4% | 99% | 97.5% | 92% | 94.8% | 96.4% | 19.8% | 97.3% | 86.9% | 82.3% | 103% | 97.9% | 86.3% | 111% | 103% | 96.6% | 66% | 21.3% | 78.5% | 86% | 93.3% | 102% | 97.1% | 93% | 108% | 90.9% | 98.9% | 103% | 13.6% | 76.5% |
| NC(=O)c1ccc(I)c([N+](=O)[O-])c1 | 104% | 127% | 108% | 126% | 126% | 130% | 133% | 124% | 123% | 117% | 123% | 97.6% | 113% | 124% | 118% | 123% | 112% | 116% | 131% | 115% | 103% | 99.8% | 106% | 124% | 131% | 137% | 137% | 143% | 145% | 156% | 120% | 104% | 111% |

Source: the supplement of paper PMC11451515
